# Source: US20130303507A1 (Novartis AG, priority 2011, published 2013)
# Molecular target: Cdk9/cyclinT1 (Homo sapiens, UniProt P50750)
# Test: Cdk9/cyclinT1 IMAP protocol (fluorescence polarization)
# Details: IC-50, CDK9; lower limit of assay 0.0005 micromolar
# Chain of Cdk9/cyclinT1 (P50750 whole entry): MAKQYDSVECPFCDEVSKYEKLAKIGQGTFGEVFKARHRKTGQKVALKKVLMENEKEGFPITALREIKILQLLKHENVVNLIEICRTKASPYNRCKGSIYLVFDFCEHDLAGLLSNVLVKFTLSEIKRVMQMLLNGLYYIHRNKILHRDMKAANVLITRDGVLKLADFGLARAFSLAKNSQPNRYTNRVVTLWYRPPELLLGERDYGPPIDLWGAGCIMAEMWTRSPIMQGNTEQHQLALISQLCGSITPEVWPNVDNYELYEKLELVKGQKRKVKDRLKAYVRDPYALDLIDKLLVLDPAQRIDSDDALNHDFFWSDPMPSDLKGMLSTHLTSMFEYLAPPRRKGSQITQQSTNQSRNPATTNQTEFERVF
# Chain of Cdk9/cyclinT1 (O60563 whole entry partner): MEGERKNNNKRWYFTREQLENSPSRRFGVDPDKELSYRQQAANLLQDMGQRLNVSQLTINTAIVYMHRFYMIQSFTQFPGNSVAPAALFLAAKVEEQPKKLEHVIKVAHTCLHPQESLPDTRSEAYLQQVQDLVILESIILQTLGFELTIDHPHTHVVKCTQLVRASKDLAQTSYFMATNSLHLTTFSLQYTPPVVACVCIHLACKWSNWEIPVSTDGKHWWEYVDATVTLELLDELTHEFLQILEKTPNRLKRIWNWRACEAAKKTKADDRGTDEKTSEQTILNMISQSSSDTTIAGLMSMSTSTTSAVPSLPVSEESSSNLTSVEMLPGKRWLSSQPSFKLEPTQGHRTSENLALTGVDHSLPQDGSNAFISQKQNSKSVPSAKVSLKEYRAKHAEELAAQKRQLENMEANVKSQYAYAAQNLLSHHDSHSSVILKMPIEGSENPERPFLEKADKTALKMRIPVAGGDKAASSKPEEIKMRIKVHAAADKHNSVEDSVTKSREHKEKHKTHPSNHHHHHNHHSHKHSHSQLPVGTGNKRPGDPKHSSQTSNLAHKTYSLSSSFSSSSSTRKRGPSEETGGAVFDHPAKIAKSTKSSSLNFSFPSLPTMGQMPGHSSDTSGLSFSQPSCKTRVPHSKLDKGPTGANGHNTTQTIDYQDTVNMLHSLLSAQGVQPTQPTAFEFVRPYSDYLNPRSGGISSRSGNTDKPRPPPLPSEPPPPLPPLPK
row,SMILES,IC50 [nM]
1,"N#CC1(CNc2cccc(-c3cc(N[C@H]4CC[C@H](N5CCCC5)CC4)ncc3Cl)n2)CCOCC1 [Compound 434, 4-(((5′-chloro-2′-((trans-4-(pyrrolidin-1-yl)cydohexyl)amino)-[2,4′-bipyridin]-6-yl)amino)methyl)tetrahydro-2H-pyran-4-carbonitrile]",≤ 0.5
2,"CO[C@@H]1CC[C@H](Nc2cc(-c3cccc(NCC4(C#N)CCOCC4)n3)c(Cl)cn2)C[C@H]1N [Compound 438, 4-(((2′-(((1S,3R,4R)-3-amino-4-methoxycyclohexyl)amino)-5′-chloro-[2,4′-bipyridin]-6-yl)amino)methyl)tetrahydro-2H-pyran-4-carbonitrile]",20
3,"CO[C@H]1C[C@@H](Nc2cc(-c3cccc(NCC4(C#N)CCOCC4)n3)c(Cl)cn2)CC[C@@H]1N [Compound 439, 4-(((2′-(((1S,3S,4S)-4-amino-3-methoxycyclohexyl)amino)-5′-chloro-[2,4′-bipyridin]-6-yl)amino)methyl)tetrahydro-2H-pyran-4-carbonitrile]",10
4,"N#CC1(CNc2cccc(-c3cc(NCC4CCOCC4)ncc3Cl)n2)CCOCC1 [Compound 441, 4-(((5′-chloro-2′-(((tetrahydro-2H-pyran-4-yl)methyl)amino)-[2,4′-bipyridin]-6-yl)amino)methyl)tetrahydro-2H-pyran-4-carbonitrile]",3
5,"N#CC1(CNc2cccc(-c3cc(N[C@H]4CC[C@H](N5CCOCC5)CC4)ncc3Cl)n2)CCOCC1 [Compound 442, 4-(((5′-chloro-2′-((trans-4-morpholinocyclohexyl)amino)-[2,4′-bipyridin]-6-yl)amino)methyl)tetrahydro-2H-pyran-4-carbonitrile]",0.6
6,"N#CC1(CNc2cccc(-c3cc(NC4CCOCC4)ncc3Cl)n2)CCOCC1 [Compound 443, 4-(((5′-chloro-2′-((tetrahydro-2H-pyran-4-yl)amino)-[2,4′-bipyridin]-6-yl)amino)methyl)tetrahydro-2H-pyran-4-carbonitrile]",1.7
7,"N#CCCN[C@H]1CC[C@H](Nc2cc(-c3cccc(NCC4CCOCC4)n3)c(Cl)cn2)CC1 [Compound 444, 3-((trans-4-((5′-chloro-6-(((tetrahydro-2H-pyran-4-yl)methyl)amino)-[2,4′-bipyridin]-2′-yl)amino)cyclohexyl)amino) propanenitrile]",2.4
8,"COC[C@@H](C)N[C@H]1CC[C@H](Nc2cc(-c3cccc(NCCC#N)n3)c(Cl)cn2)CC1 [Compound 445, 3-((5′-chloro-2′-((trans-4-(((R)-1-methoxypropan-2-yl)amino)cyclohexyl)amino)-[2,4′-bipyridin]-6-yl)amino)propanenitrile]",2.1
9,"COCCN(CCOC)[C@H]1CC[C@H](Nc2cc(-c3cccc(NCC4(C#N)CCOCC4)n3)c(Cl)cn2)CC1 [Compound 446, 4-(((2′-((trans-4-(bis(2-methoxyethyl)amino)cyclohexyl)amino)-5′-chloro-[2,4′-bipyridin]-6-yl)amino)methyl)tetrahydro-2H-pyran-4-carbonitrile]",< 0.5
10,"COC[C@]1(O)CC[C@@H](Nc2cc(-c3cccc(NCC4CCOCC4)n3)c(Cl)cn2)CC1 [Compound 447, Cis-4-((5′-chloro-6-(((tetrahydro-2H-pyran-4-yl)methyl)amino)-[2,4′-bipyridin]-2′-yl)amino)-1-(methoxymethyl)cyclohexanol]",42
11,"COC[C@]1(O)CC[C@@H](Nc2cc(-c3cccc(NCC4(C#N)CCOCC4)n3)c(Cl)cn2)CC1 [Compound 448, 4-(((5′-chloro-2′-((cis-4-hydroxy-4-(methoxymethyl)cyclohexyl)amino)-[2,4′-bipyridin]-6-yl)amino)methyl)tetrahydro-2H-pyran-4-carbonitrile]",1.1
12,"COC[C@]1(O)CC[C@H](Nc2cc(-c3cccc(NCC4(C#N)CCOCC4)n3)c(Cl)cn2)CC1 [Compound 449, 4-(((5′-chloro-2′-((trans-4-hydroxy-4-(methoxymethyl)cyclohexyl)amino)-[2,4′-bipyridin]-6-yl)amino)methyl)tetrahydro-2H-pyran-4-carbonitrile]",5.5
13,"N[C@H]1CC[C@H](Nc2cc(-c3cccc(NCC4(O)CCOCC4)n3)c(Cl)cn2)CC1 [Compound 450, 4-(((2′-((trans-4-aminocyclohexyl)amino)-5′-chloro-[2,4′-bipyridin]-6-yl)amino)methyl)tetrahydro-2H-pyran-4-ol]",1.5
14,"COC[C@H](C)N[C@H]1CC[C@H](Nc2cc(-c3cccc(NCC4(O)CCOCC4)n3)c(Cl)cn2)CC1 [Compound 451, 4-(((5′-chloro-2′-((trans-4-(((S)-1-methoxypropan-2-yl)amino)cyclohexyl)amino)-[2,4′-bipyridin]-6-yl)amino)methyl)tetrahydro-2H-pyran-4-ol]",7
15,"CCOC(=O)C(C)(C)N[C@H]1CC[C@H](Nc2cc(-c3cccc(NCC4(C#N)CCOCC4)n3)c(Cl)cn2)CC1 [Compound 452, ethyl 2-((trans-4-((5′-chloro-6-(((4-cyanotetrahydro-2H-pyran-4-yl)methyl)amino)-[2,4′-bipyridin]-2′-yl)amino)cyclohexyl)amino)-2-methylpropanoate]",0.7
16,"CC(C)(CO)N[C@H]1CC[C@H](Nc2cc(-c3cccc(NCC4(C#N)CCOCC4)n3)c(Cl)cn2)CC1 [Compound 453, 4-(((5′-chloro-2′-((trans-4-((1-hydroxy-2-methylpropan-2-yl)amino)cyclohexyl)amino)-[2,4′-bipyridin]-6-yl)amino)methyl)tetrahydro-2H-pyran-4-carbonitrile]",< 0.5
17,"COCC(C)(C)N[C@H]1CC[C@H](Nc2cc(-c3cccc(NCC4(C#N)CCOCC4)n3)c(Cl)cn2)CC1 [Compound 454, 4-(((5′-chloro-2′-((trans-4-((1-methoxy-2-methylpropan-2-yl)amino)cyclohexyl)amino)-[2,4′-bipyridin]-6-yl)amino)methyl)tetrahydro-2H-pyran-4-carbonitrile]",2
18,"COCCNC(=O)[C@H]1CC[C@H](Nc2cc(-c3cccc(NCC4(C#N)CCOCC4)n3)c(Cl)cn2)CC1 [Compound 455, trans-4-((5′-chloro-6-(((4-cyanotetrahydro-2H-pyran-4-yl)methyl)amino)-[2,4′-bipyridin]-2′-yl)amino)-N-(2-methoxyethyl)cyclohexane-carboxamide]",0.8
19,"COC[C@H](C)N[C@H]1CC[C@H](Nc2cc(-c3ccc(F)c(NCC4CCOC(C)(C)C4)n3)c(Cl)cn2)CC1 (stereo partly drawn) [Compound 457, 5′-chloro-N6-((2,2-dimethyltetrahydro-2H-pyran-4-yl)methyl)-5-fluoro-N2′-(trans-4-(((S)-1-methoxypropan-2-yl)amino)cyclohexyl)-[2,4′-bipyridine]-2′,6-diamine]",1.6
20,"COC[C@H](C)N[C@H]1CC[C@H](Nc2cc(-c3ccc(F)c(NCC4(C#N)CCOCC4)n3)c(Cl)cn2)CC1 [Compound 458, 4-(((5′-chloro-5-fluoro-2′-((trans-4-(((S)-1-methoxypropan-2-yl)amino)cyclohexyl)amino)-[2,4′-bipyridin]-6-yl)amino)methyl)tetrahydro-2H-pyran-4-carbonitrile]",< 0.5
21,"COC[C@H](C)N[C@H]1CC[C@H](Nc2cc(-c3cccc(NCC4(C#N)CCOCC4)n3)c(Cl)cn2)CC1 [Compound 459, 4-(((5′-chloro-2′-((trans-4-(((S)-1-methoxypropan-2-yl)amino)cyclohexyl)amino)-[2,4′-bipyridin]-6-yl)amino)methyl)tetrahydro-2H-pyran-4-carbonitrile]",≤ 0.5
